# Source: article PMC2972509 (Journal of medicinal chemistry, 2010)
# Values joined by “and” are separate entries in the source; they are usually repeats but may differ in a detail not shown here. Equal values may be shown once. “Also recorded” adds a separate entry of the source.
# Tests used:
# dopamine D4 receptor = biological target: T1, dopamine D4 receptor (Rattus norvegicus, UniProt P30729); test: Radioligand competition binding at cloned dopamine D4 receptor; conditions: for D4 Ki, nM ± SEM: [3H]MSP, cloned rat D4 receptor in HEK293 membranes; for Selectivity for D4 over off-target receptors: over D2, D3, 5-HT1A, 5-HT2A, 5-HT2C and sigma1 receptors
# T1 sequence (P30729 1-387): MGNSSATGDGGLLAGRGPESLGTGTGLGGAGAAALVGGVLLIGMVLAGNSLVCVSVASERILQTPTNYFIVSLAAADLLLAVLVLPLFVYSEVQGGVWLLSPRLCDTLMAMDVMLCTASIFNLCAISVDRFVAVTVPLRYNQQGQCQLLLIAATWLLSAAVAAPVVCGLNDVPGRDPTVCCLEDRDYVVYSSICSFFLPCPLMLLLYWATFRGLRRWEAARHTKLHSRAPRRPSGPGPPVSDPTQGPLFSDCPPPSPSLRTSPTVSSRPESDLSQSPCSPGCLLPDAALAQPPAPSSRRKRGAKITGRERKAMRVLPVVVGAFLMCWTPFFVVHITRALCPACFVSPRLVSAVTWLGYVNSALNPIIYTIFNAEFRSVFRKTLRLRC
# [1] = biological target: T2, cloned D4 dopamine receptor (Rattus norvegicus, UniProt P30729); test: D4 receptor functional assay: decrease in forskolin-stimulated cAMP accumulation; assay type: cell-based; conditions: Gi/o-mediated
# T2 sequence (P30729 1-387): T1 sequence (P30729 1-387)
# [2] = Preliminary disposition studies in mice; assay type: in vivo; conditions: for Tmax: male, CD1, mouse, plasma, ip; for Maximum brain concentration (mean ± SD) / Maximum plasma concentration (mean ± SD): parent compound, 7 after 30 min, 13 after 15 min
Compound,"D4 Ki, nM ± SEM (dopamine D4 receptor)",Selectivity for D4 over off-target receptors (dopamine D4 receptor),Functional property at D4 receptor [1],Tmax ([2]; 10 mg/kg),"Time of mean brain Cmax ([2]; mice, 10 mg/kg i.p.)","Time up to which quantifiable brain levels were consistently evident ([2]; mice, 10 mg/kg i.p.)","Plasma concentration after 30 minutes (below limit of quantitation) ([2]; mice, 10 mg/kg i.p., 0.2 ml plasma)","Maximum brain concentration (mean ± SD) ([2]; mice, 10 mg/kg i.p.)","Maximum plasma concentration (mean ± SD) ([2]; mice, 10 mg/kg i.p.)",Fold higher D4 affinity than the 3-methoxy analog 5 (dopamine D4 receptor),"Time up to which plasma concentrations were consistently detected ([2]; mice, 10 mg/kg i.p.)","Maximum plasma concentration (mean ± SD) ([2]; mice, 10 mg/kg i.p., 10 mg/kg)"
"N#Cc1cccnc1N1CCN(CCNC(=O)c2ccc(F)cc2)CC1 [Compound 13, N-[2-[4-(3-Cyanopyridin-2-yl)piperazin-1-yl]ethyl]-4-fluorobenzamide]",subnanomolar; also recorded: nanomolar affinity,> 100 fold,agonist properties; also recorded: agonists,15 min,15 min,up to 60 min,less than 0.1 µg/mL,0.47 ± 0.20 µg/g,0.13 ± 0.10 µg/mL,,,
"O=C(NCCN1CCN(c2noc3ccccc23)CC1)c1ccc(F)cc1 [Compound 11, N-[2-[4-(1,2-Benzisoxazol-3-yl)piperazin-1-yl]ethyl]-4-fluorobenzamide]",subnanomolar,,,,,,,,,approximately 6 fold,,
"COc1cccc(C(=O)NCCN2CCN(c3ncccc3C#N)CC2)c1 [Compound 7, N-[2-[4-(3-Cyanopyridin-2-yl)piperazin-1-yl]ethyl]-3-methoxybenzamide]",nanomolar affinity,> 100 fold,agonist properties; also recorded: agonists,30 min,,up to 30 min,,0.14 ± 0.02 µg/g,,,up to 60 minutes,0.37 ± 0.02 µg/mL and 0.37 ± 0.21 µg/mL
